Measured values published in US11999727B2 (Tango Therapeutics, Inc., priority 2020, dated 2024).

Legend:
[1] = test system: HAP1 MTAP-deleted cell line; experiment: SDMA in-cell western assay, HAP1 MTAP-deleted; assay type: cell-based; settings: for IC50: Homo sapiens, HAP1, SDMA in-cell western, HAP1 MTAP-deleted, read-out: HAP1 MTAP deleted IC50; for MTAP intact/deleted ratio: IC50 ratio HAP1 MTAP-intact / HAP1 MTAP-deleted, SDMA in-cell western
Outline: (§1)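 Readout: in-cell western detection of SDMA. Cells: HAP1 expressing endogenous MTAP and an MTAP-null HAP1 counterpart. Output: IC50.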

PRMT5 [2] = target: T1, PRMT5 (Homo sapiens, UniProt O14744); experiment: PRMT5 biochemical IC50 assay with MTA as cofactor; settings: PRMT5, MTA as cofactor; read-out: MTA IC50
T1 construct: purchased Viva (custom protein)
T1 sequence (O14744 whole entry): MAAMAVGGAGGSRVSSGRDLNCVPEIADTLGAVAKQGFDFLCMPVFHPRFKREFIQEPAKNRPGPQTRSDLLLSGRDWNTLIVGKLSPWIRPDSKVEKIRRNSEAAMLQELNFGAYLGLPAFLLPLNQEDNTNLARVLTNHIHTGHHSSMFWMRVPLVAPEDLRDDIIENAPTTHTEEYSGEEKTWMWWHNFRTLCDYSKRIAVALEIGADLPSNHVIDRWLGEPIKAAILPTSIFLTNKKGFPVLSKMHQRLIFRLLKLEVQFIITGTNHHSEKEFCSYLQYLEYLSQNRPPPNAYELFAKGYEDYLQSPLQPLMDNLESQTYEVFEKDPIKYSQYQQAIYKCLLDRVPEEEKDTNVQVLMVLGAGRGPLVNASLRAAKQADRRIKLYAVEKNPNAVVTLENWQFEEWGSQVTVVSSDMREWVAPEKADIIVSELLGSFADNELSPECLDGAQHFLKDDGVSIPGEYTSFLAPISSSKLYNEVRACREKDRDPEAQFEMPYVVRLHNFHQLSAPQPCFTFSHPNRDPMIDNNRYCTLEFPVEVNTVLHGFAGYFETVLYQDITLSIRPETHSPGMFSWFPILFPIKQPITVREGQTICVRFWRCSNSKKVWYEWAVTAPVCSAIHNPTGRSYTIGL
T1 sequence (Q9BQA1 whole entry partner): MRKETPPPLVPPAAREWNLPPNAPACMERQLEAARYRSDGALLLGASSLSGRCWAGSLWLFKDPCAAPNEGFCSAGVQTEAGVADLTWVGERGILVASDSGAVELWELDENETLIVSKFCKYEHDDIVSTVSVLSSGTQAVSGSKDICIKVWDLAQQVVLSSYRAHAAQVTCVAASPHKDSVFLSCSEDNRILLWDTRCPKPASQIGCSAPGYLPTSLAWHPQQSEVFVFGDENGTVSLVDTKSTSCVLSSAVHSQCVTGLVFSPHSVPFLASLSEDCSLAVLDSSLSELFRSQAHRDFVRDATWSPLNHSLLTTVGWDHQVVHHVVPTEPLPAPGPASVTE

PRMT5 [3] = target: T1, PRMT5; experiment: PRMT5 biochemical IC50 assay with no cofactor; settings: PRMT5, no cofactor; read-out: No Cofactor/rel IC50
From the text: Table 1 indicates IC50 values (μM) against PRMT5 for exemplary compounds in the presence of SAM as cofactor, with no cofactor, and with MTA as cofactor, respectively (columns 4-6). […] Ki values can be calculated from the IC50 values as described in the Examples section. As detailed in the Examples section, for the assay performed in the presence of SAM, IC50=Ki×1.5 (Ki=IC50/1.5).

[4] = test system: HAP1 MTAP-deleted cell line; experiment: Viability assay, MTAP-deleted cell line; assay type: cell-based; settings: Homo sapiens, HAP1, viability assay, HAP1 MTAP-deleted; read-out: HAP1 MTAP deleted viability
From the text: Table 1 additionally indicates IC50 values in a viability assay for the MTAP-deleted cell line (column 10), indicating the effect of treatment with compound on cell survival.

PRMT5 [5] = target: T1, PRMT5; experiment: PRMT5 biochemical IC50 assay with SAM as cofactor; settings: PRMT5, SAM as cofactor; read-out: SAM IC50
[6] = test system: HAP1 MTAP-intact cell line; experiment: SDMA in-cell western assay, HAP1 MTAP-intact; assay type: cell-based; settings: Homo sapiens, HAP1, SDMA in-cell western, HAP1 MTAP-intact; read-out: MTAP HAP1 intact IC50
Outline: as §1

Structure (SMILES) | IC50 [1] [nM] | IC50 (PRMT5 [2]) [nM] | IC50 (PRMT5 [3]) [nM] | IC50 (PRMT5 [5]) [nM] | IC50 [6] [nM] | MTAP intact/deleted ratio [1] | IC50 [4] [µM]
CC(=O)N1CCCC([C@@H]2CC[C@@H](C)CN2C(=O)C(=O)Nc2cnc(N)c(C)c2)C1 (mixture of isomers) [Compound 757, rac-2-[(2R,5S)-2-(1-acetyl-3-piperidyl)-5-methyl-1-piperidyl]-N-(6-amino-5-methyl-3-pyridyl)-2-oxo-acetamide] | 100 to 1000 | 50 to 500 | 50 to 500 | 50 to 500 | > 1000 | B (an IC50 ratio greater than or equal to 3 fold but lower than 10 fold) | > 10
COc1ncc(NC(=O)C(=O)N2C[C@@H](C)CC[C@@H]2c2ccc3c(c2)C(=O)NC3)cc1C(N)=O (racemic) [Compound 759, 2-methoxy-5-[[2-[(2S,5R)-5-methyl-2-(3-oxoisoindolin-5-yl)-1-piperidyl]-2-oxo-acetyl]amino]pyridine-3-carboxamide] | 100 to 1000 | < 50 | 50 to 500 | 50 to 500 | > 1000 | A (an IC50 ratio greater than or equal to 10 fold) | 1 to 10
Cc1cc(NC(=O)C(=O)N2C[C@H](C)CC[C@H]2C2CC3(CC(N)C3)C2)cnc1N (mixture of isomers) [Compound 773, N-(6-amino-5-methylpyridin-3-yl)-2-(2-(6-aminospiro[3.3]heptan-2-yl)-5-methylpiperidin-1-yl)-2-oxoacetamide] | 100 to 1000 | 50 to 500 | 50 to 500 | 50 to 500 | > 1000 | B (an IC50 ratio greater than or equal to 3 fold but lower than 10 fold) | 1 to 10
C[C@@H]1CC[C@@H](c2cncc(Cl)c2)N(C(=O)C(=O)Nc2cncc(C(N)=O)c2)C1 (racemic) [Compound 791, 5-(2-(2-(5-chloropyridin-3-yl)-5-methylpiperidin-1-yl)-2-oxoacetamido)nicotinamide] | 100 to 1000 | < 50 | 50 to 500 | 50 to 500 | > 1000 | A (an IC50 ratio greater than or equal to 10 fold) | 1 to 10
Cc1cc(NC(=O)C(=O)N2C[C@H](C)CC[C@H]2c2cnn(-c3ccn[nH]3)c2)cnc1N (racemic) [Compound 793, N-(6-amino-5-methyl-3-pyridyl)-2-[(2R,5S)-5-methyl-2-[1-(1H-pyrazol-3-yl)pyrazol-4-yl]-1-piperidyl]-2-oxo-acetamide] | 100 to 1000 | 50 to 500 | 50 to 500 | 50 to 500 | > 1000 | A (an IC50 ratio greater than or equal to 10 fold) | 1 to 10

Now from value to compound, other results behind:

IC50 [1] [nM] | IC50 (PRMT5 [2]) [nM] | IC50 (PRMT5 [3]) [nM] | IC50 (PRMT5 [5]) [nM] | IC50 [6] [nM] | Structure (SMILES) | MTAP intact/deleted ratio [1] | IC50 [4] [µM]
> 1000 | 50 to 500 | 50 to 500 | 50 to 500 | > 1000 | CCc1ncc(NC(=O)C(=O)N2C[C@@H](C)CC[C@@H]2c2ccccc2)cc1C(N)=O (racemic) [Compound 747, 2-Ethyl-5-[[2-[(2S,5R)-5-methyl-2-phenyl-1-piperidyl]-2-oxo-acetyl]amino]pyridine-3-carboxamide] | B (an IC50 ratio greater than or equal to 3 fold but lower than 10 fold) | > 10
> 1000 | 50 to 500 | > 500 | > 500 | > 1000 | Cc1cc(NC(=O)C(=O)N2C[C@@H](C)CC[C@H]2C23CC(O)(C2)C3)cnc1N (racemic) [Compound 774] | B (an IC50 ratio greater than or equal to 3 fold but lower than 10 fold) | > 10
< 100 | 50 to 500 | 50 to 500 | 50 to 500 | > 1000 | CNC(=O)N1CCC([C@@H]2CC[C@@H](C)CN2C(=O)C(=O)Nc2cnc(N)c(C)c2)CC1 (racemic) [Compound 781, 4-[(2R,5S)-1-[2-[(6-amino-5-methyl-3-pyridyl)amino]-2-oxo-acetyl]-5-methyl-2-piperidyl]-N-methyl-piperidine-1-carboxamide] | A (an IC50 ratio greater than or equal to 10 fold) | 1 to 10
